Reference: BindingDB's records for doi:10.1021/np980119+ (University of California, 1999)

assay: Inhibition of phorbol ester-induced ornithine decarboxylase in human MCF7 cells after 6 hrs

Compound	IC50
O=c1c(-c2ccc(O)cc2)coc2cc(O)cc(O)c12 [Prunetol]	26 µM
Oc1ccc(/C=C/c2cc(O)cc(O)c2)cc1 [5-[(E)-2-(4-hydroxyphenyl)ethenyl]benzene-1,3-diol]	19 µM
COc1cc(/C=C/c2cc(OC)c3c(c2)OC(C)(C)C=C3)ccc1O [3,5'-dimethoxy-4-hydroxy-6'',6''-dimethylpyran[2'',3'':3',4']stilbene]	7.4 µM
COc1cc(/C=C/c2ccc3c(c2)OC(C)(C)C=C3)cc(OC)c1OC [3,4,5-trimethoxy-6'',6''-dimethylpyran[2'',3'':3',4']stilbene]	3.9 µM

Molecules with a lower IC50, results first:

IC50	Compound
3.6 µM	COc1cc(/C=C/C(=O)c2ccc3c(c2O)C=CC(C)(C)O3)ccc1O [3-methoxy-4-hydroxylonchocarpin]
2.3 µM	COc1ccc([C@@H]2CC(=O)c3cc(CC=C(C)C)c4c(c3O2)C=CC(C)(C)O4)cc1OC [(2S)-6-(gamma,gamma-dimethylallyl)-3',4'-dimethoxy-6'',6''-dimethylpyran[2'',3'':7,8]flavanone]
1.1 µM	COc1cc([C@@H]2CC(=O)c3c(O)c(CC=C(C)C)c4c(c3O2)C=CC(C)(C)O4)ccc1O [(2S)-6-(gamma,gamma-dimethylallyl)-5,4'-dihydroxy-3'-methoxy-6'',6''-dimethylpyran[2'',3'':7,8]flavanone]
